# Measurements as given in ChEMBL document CHEMBL1201862, “PubChem BioAssay data set” (2004).
#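 A five-concentration, 48-hour dose response in 96-well plates underlies each endpoint, interpolated linearly between surrounding concentrations. At the GI50, growth is halved.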 Activity calls are given as the source filed them. Rule as the data show it: active = GI50 up to about 1.1 µM and inactive = higher.
# Tests used:
# Assay in all cases: inhibition of tumour cell growth, NCI panel, 48 h
# HCT-116 = test system: HCT-116
# UO-31 = test system: UO-31
# M19-MEL = test system: M19-MEL
# SK-MEL-28 = test system: SK-MEL-28
# LXFL 529 = test system: LXFL 529
# DLD-1 = test system: DLD-1
# OVCAR-3 = test system: OVCAR-3
# HL-60 = test system: HL-60
# SN12C = test system: SN12C
# SK-MEL-2 = test system: SK-MEL-2
# RXF 393 = test system: RXF 393
# M14 = test system: M14
# UACC-257 = test system: UACC-257
# NCI-H226 = test system: NCI-H226
# SR = test system: SR
# OVCAR-8 = test system: OVCAR-8
# 786-0 = test system: 786-0
# DMS-273 = test system: DMS-273
# SK-MEL-5 = test system: SK-MEL-5
# EKVX = test system: EKVX
# SNB-75 = test system: SNB-75
# SW-620 = test system: SW-620
# A549 = test system: A549
# HCT-15 = test system: HCT-15
# SF-539 = test system: SF-539
# HT-29 = test system: HT-29
# RXF 631 = test system: RXF 631
# K562 = test system: K562
# OVCAR-4 = test system: OVCAR-4
# CAKI-1 = test system: CAKI-1
# HOP-92 = test system: HOP-92
# A498 = test system: A498
# NCI-H460 = test system: NCI-H460
# HCC 2998 = test system: HCC 2998
# SNB-78 = test system: SNB-78
# MOLT-4 = test system: MOLT-4
# IGROV-1 = test system: IGROV-1
# ACHN = test system: ACHN
# KM12 = test system: KM12
# OVCAR-5 = test system: OVCAR-5
# CCRF-CEM = test system: CCRF-CEM
# TK-10 = test system: TK-10
# KM-20L2 = test system: KM-20L2
# Malme-3M = test system: Malme-3M
# SNB-19 = test system: SNB-19
# COLO 205 = test system: COLO 205
# HOP-62 = test system: HOP-62
# NCI-H23 = test system: NCI-H23
# LOX IMVI = test system: LOX IMVI
# HOP-18 = test system: HOP-18
# RPMI-8226 = test system: RPMI-8226
# U-251 = test system: U-251
# NCI-H522 = test system: NCI-H522
# UACC-62 = test system: UACC-62
# DMS-114 = test system: DMS-114
# SF-295 = test system: SF-295
# SF-268 = test system: SF-268
# SK-OV-3 = test system: SK-OV-3
smiles,measurement,setting,value
Cc1ccc(S(=O)(=O)OC[C@@H]2CO2)cc1,GI50,HCT-116,> 100 µM (inactive)
same,GI50,UO-31,> 100 µM (inactive)
same,GI50,M19-MEL,> 100 µM (inactive)
same,GI50,SK-MEL-28,> 100 µM (inactive)
same,GI50,LXFL 529,> 100 µM (inactive)
same,GI50,DLD-1,> 100 µM (inactive)
same,GI50,OVCAR-3,> 100 µM (inactive)
same,GI50,HL-60,> 100 µM (inactive)
same,GI50,SN12C,> 100 µM (inactive)
same,GI50,SK-MEL-2,> 100 µM (inactive)
same,GI50,RXF 393,> 100 µM (inactive)
same,GI50,M14,> 100 µM (inactive)
same,GI50,UACC-257,> 100 µM (inactive)
same,GI50,NCI-H226,> 100 µM (inactive)
same,GI50,SR,> 100 µM (inactive)
same,GI50,OVCAR-8,> 100 µM (inactive)
same,GI50,786-0,> 100 µM (inactive)
same,GI50,DMS-273,> 100 µM (inactive)
same,GI50,SK-MEL-5,> 100 µM (inactive)
same,GI50,EKVX,> 100 µM (inactive)
same,GI50,SNB-75,> 100 µM (inactive)
same,GI50,SW-620,> 100 µM (inactive)
same,GI50,A549,> 100 µM (inactive)
same,GI50,HCT-15,> 100 µM
same,GI50,SF-539,> 100 µM (inactive)
same,GI50,HT-29,> 100 µM (inactive)
same,GI50,RXF 631,68.7 µM (inactive)
same,GI50,K562,> 100 µM (inactive)
same,GI50,OVCAR-4,> 100 µM (inactive)
same,GI50,CAKI-1,> 100 µM (inactive)
same,GI50,HOP-92,> 100 µM (inactive)
same,GI50,A498,> 100 µM (inactive)
same,GI50,NCI-H460,> 100 µM (inactive)
same,GI50,HCC 2998,> 100 µM (inactive)
same,GI50,SNB-78,> 100 µM (inactive)
same,GI50,MOLT-4,> 100 µM (inactive)
same,GI50,IGROV-1,> 100 µM (inactive)
same,GI50,ACHN,> 100 µM (inactive)
same,GI50,KM12,> 100 µM (inactive)
same,GI50,OVCAR-5,> 100 µM (inactive)
same,GI50,CCRF-CEM,> 100 µM (inactive)
same,GI50,TK-10,44.6 µM (inactive)
same,GI50,KM-20L2,> 100 µM (inactive)
same,GI50,Malme-3M,> 100 µM (inactive)
same,GI50,SNB-19,> 100 µM (inactive)
same,GI50,COLO 205,> 100 µM (inactive)
same,GI50,HOP-62,> 100 µM (inactive)
same,GI50,NCI-H23,> 100 µM (inactive)
same,GI50,LOX IMVI,99.3 µM (inactive)
same,GI50,HOP-18,> 100 µM (inactive)
CN(C)/C(N)=N\C#N,GI50,HCT-116,> 100 µM (inactive)
same,GI50,UO-31,> 100 µM (inactive)
same,GI50,M19-MEL,83.6 µM (inactive)
same,GI50,SK-MEL-28,> 100 µM (inactive)
same,GI50,RPMI-8226,64.7 µM (inactive)
same,GI50,LXFL 529,> 100 µM (inactive)
same,GI50,DLD-1,48.9 µM (inactive)
same,GI50,OVCAR-3,> 100 µM (inactive)
same,GI50,HL-60,> 100 µM (inactive)
same,GI50,SN12C,> 100 µM (inactive)
same,GI50,SK-MEL-2,> 100 µM (inactive)
same,GI50,RXF 393,17.5 µM (inactive)
same,GI50,M14,> 100 µM (inactive)
same,GI50,UACC-257,> 100 µM (inactive)
same,GI50,NCI-H226,> 100 µM (inactive)
same,GI50,OVCAR-8,> 100 µM (inactive)
same,GI50,786-0,> 100 µM (inactive)
same,GI50,U-251,> 100 µM (inactive)
same,GI50,DMS-273,> 100 µM (inactive)
same,GI50,NCI-H522,> 100 µM (inactive)
same,GI50,SK-MEL-5,> 100 µM (inactive)
same,GI50,EKVX,> 100 µM (inactive)
same,GI50,UACC-62,> 100 µM (inactive)
same,GI50,SNB-75,> 100 µM (inactive)
same,GI50,DMS-114,93.8 µM (inactive)
same,GI50,SW-620,21 µM (inactive)
same,GI50,A549,> 100 µM (inactive)
same,GI50,HCT-15,18.9 µM
same,GI50,SF-539,> 100 µM (inactive)
same,GI50,HT-29,> 100 µM (inactive)
same,GI50,RXF 631,> 100 µM (inactive)
same,GI50,K562,> 100 µM (inactive)
same,GI50,OVCAR-4,> 100 µM (inactive)
same,GI50,CAKI-1,> 100 µM (inactive)
same,GI50,HOP-92,> 100 µM (inactive)
same,GI50,SF-295,> 100 µM (inactive)
same,GI50,SF-268,> 100 µM (inactive)
same,GI50,A498,> 100 µM (inactive)
same,GI50,NCI-H460,> 100 µM (inactive)
same,GI50,SK-OV-3,> 100 µM (inactive)
same,GI50,HCC 2998,> 100 µM (inactive)
same,GI50,SNB-78,> 100 µM (inactive)
same,GI50,MOLT-4,> 100 µM (inactive)
same,GI50,IGROV-1,> 100 µM (inactive)
same,GI50,ACHN,> 100 µM (inactive)
same,GI50,KM12,> 100 µM (inactive)
same,GI50,OVCAR-5,> 100 µM (inactive)
same,GI50,TK-10,> 100 µM (inactive)
same,GI50,KM-20L2,> 100 µM (inactive)
same,GI50,Malme-3M,> 100 µM (inactive)
same,GI50,SNB-19,> 100 µM (inactive)
same,GI50,COLO 205,59.4 µM (inactive)
same,GI50,HOP-62,> 100 µM (inactive)
same,GI50,NCI-H23,> 100 µM (inactive)
same,GI50,HOP-18,> 100 µM (inactive)
